Source: PubChem BioAssay (NCI)
“And” between values parts separate entries of the source, which are not always exact repeats. Equal values may be shown once.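 Interpolation was linear, between the two tested concentrations surrounding the appropriate level; five concentrations were tested over 48 hours in 96-well plates. The concentration for 50% growth inhibition is given as GI50. At the TGI there is no net growth.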

Experiments:
Assay in all cases: DTP human tumour cell line panel, 48 h
[1] = test system: UACC-257 melanoma
[2] = test system: HT29 colon
[3] = test system: RPMI-8226 leukemia
[4] = test system: LXFL 529 NSCLC
[5] = test system: M19-MEL melanoma
[6] = test system: UO-31 renal
[7] = test system: SNB-19 CNS
[8] = test system: HOP-62 NSCLC
[9] = test system: NCI-H522 lung
[10] = test system: HS 578T breast

Structure (SMILES)	TGI [1]	TGI [2]	TGI [3]	TGI [4]	TGI [5]	TGI [6]	TGI [7]	TGI [8]	TGI [9]	TGI [10]	GI50 [1]	GI50 [2]	GI50 [3]	GI50 [9]	GI50 [10]	GI50 [6]	GI50 [7]	GI50 [8]
COC1(OC)C(N(C)C)=C(Cl)C(=O)/C1=C/C=O	> 100 µM	> 100 µM	> 100 µM	> 100 µM	> 100 µM	> 100 µM	> 100 µM	> 100 µM										
COc1cc2c(c(OC)c1OC)-c1ccc(SC)c(=O)cc1C(NC=O)CC2 (centres undefined)	> 84.8 µM	1.1 µM	47.1 µM		> 100 µM	> 100 µM	> 100 µM	> 90.8 µM	< 0.01 µM	> 75.5 µM								
COc1c(OC[C@H](O)CN2CCOCC2)ccc2c3n(c(=NC(=O)c4cccnc4C)nc12)CCN3	> 50 µM	> 50 µM	> 50 µM			> 50 µM	> 50 µM	> 50 µM	> 50 µM	> 50 µM	1.11 µM	0.217 µM	> 50 µM	> 50 µM	0.15 µM	0.263 µM	5.1 µM	1.41 µM
Cc1ccc(NC(=O)CCc2cc(C(C)(C)C)nc(=S)[nH]2)cc1C	> 100 µM	> 100 µM	> 100 µM	> 100 µM		> 100 µM	> 100 µM	> 100 µM	> 100 µM									
Cc1ccc(/C=C/C(=O)c2sc(-c3nc(C)c(C(=O)/C=C/c4ccc(C)cc4)s3)nc2C)cc1	> 100 µM	> 100 µM	> 100 µM		> 100 µM	> 100 µM		> 100 µM	> 100 µM									
Cc1ccc(NC(=O)CC2CC2)cc1-c1ccc(C(=O)NCC2CC2)cc1	> 25 µM	> 25 µM	> 25 µM			> 25 µM	> 25 µM	> 25 µM	> 25 µM	> 25 µM	> 25 µM	> 25 µM	> 25 µM	> 25 µM	> 25 µM	> 25 µM	> 25 µM	> 25 µM
O=C(Nc1ccncc1)C(=O)c1cn(S(=O)(=O)c2ccc(F)cc2)c2ccccc12	> 100 µM	> 100 µM	> 100 µM			48.3 µM	> 100 µM	> 100 µM	> 100 µM	82.1 µM	11.7 µM	1.88 µM	2.54 µM	0.823 µM	3.65 µM	2.64 µM	19.5 µM	3.02 µM
O=C1/C(=C/c2cccc(Cl)c2Cl)N=C(c2ccccc2)N1C1CC1	26.2 µM	> 50 µM	14.5 µM			> 50 µM	33.2 µM	16.5 µM	> 50 µM	39.5 µM	12.2 µM	18.2 µM	3.88 µM	19.8 µM	16.6 µM	28.5 µM	12.7 µM	8.37 µM
O=C(/C=C/c1cccc2ccccc12)c1ccccc1Cl	31.3 µM	26.4 µM	47.3 µM	26.8 µM		28 µM	27 µM	37.3 µM	27.5 µM									
CC[C@H]1[C@@H]2C=C[C@@H]3[C@H]4C/C=C\C(=O)NCCC[C@@H]5NC(=O)/C(=C(O)/C=C/[C@@H]4C[C@@H]3[C@H]2C[C@H]1C)C5=O	3.49 µM	3.31 µM	4.23 µM			1.91 µM	2.42 µM	3.03 µM	15.7 µM	3.81 µM	1.71 µM	1.73 µM	1.77 µM	6.7 µM	1.44 µM	0.546 µM	1.04 µM	1.4 µM
Oc1cccnc1[Se]	> 100 µM	> 100 µM	> 100 µM			> 100 µM	> 100 µM	64.7 µM	> 100 µM	> 100 µM								
CCSc1ncnc2c1ncn2C1OC(CO)C(O)C1O (centres undefined)	> 100 µM	> 100 µM	> 100 µM			> 100 µM	> 100 µM	> 100 µM	> 100 µM	34 µM	> 19.8 µM	0.229 µM	4.5 µM	0.648 µM	0.975 µM	0.405 µM	8.24 µM	1.47 µM
O=C1OCC2=C1C(c1cccc(Br)c1)c1cc3c(cc1N2CCO)CCC3 (centres undefined)	8.12 µM	1.3 µM	10 µM			8.2 µM	9.98 µM	7.11 µM	0.521 µM	11.4 µM	0.0235 µM	0.109 µM	0.183 µM	0.0148 µM	0.151 µM	0.0997 µM	0.209 µM	0.0888 µM
CN(C)C(n1cc2c(c1)-c1ccc(Cl)cc1C(c1ccccc1F)=NC2)n1cc2c(c1)-c1ccc(Cl)cc1C(c1ccccc1F)=NC2	> 100 µM	> 100 µM	> 100 µM			> 100 µM	> 100 µM	> 100 µM	> 100 µM	> 100 µM								
CCC(C)COC(=O)c1ccc(N=Cc2ccc(C=Nc3ccc(C(=O)OCC(C)CC)cc3)cc2)cc1 (centres undefined)	> 100 µM	> 100 µM	> 100 µM	> 100 µM		> 100 µM	> 100 µM	> 100 µM	> 100 µM									
O=C(CC1(O)C(=O)N(Cc2ccccc2)c2ccc(F)cc21)c1ccc(C(=O)NCC2CCC3(CC2)OOC2(CCCCC2)OO3)cc1 (centres undefined)	31.7 µM	1.28 µM	1.92 µM			0.352 µM	43.5 µM	0.382 µM	0.396 µM	6.08 µM	4.78 µM	0.362 µM	0.365 µM	0.187 µM	1.92 µM	0.18 µM	3.44 µM	0.179 µM
COc1cc(NCc2ccc3nc(N)nc(N)c3c2C)cc(OC)c1OC (tested in a mixture with another compound)	48.7 µM	41.9 µM			52.5 µM		113 µM				0.00993 µM				29 µM and 8.3 µM			
C=C(C)[C@@H]1CC[C@]2(C)[C@H](CC=C3[C@@H]4CC(C)(C)CC[C@]4(C(N)=O)CC[C@]32C)[C@@]1(C)CCC#N	> 100 µM	> 100 µM	5.54 µM			7.52 µM	> 100 µM	> 100 µM	> 100 µM	54.6 µM	4.09 µM	3.48 µM	1.94 µM	3.07 µM	3.28 µM	2.55 µM	4.05 µM	7.44 µM
